Literature values as cited in US20060019313A1, “Method for detecting molecular surface interactions” (Biacore AB, priority 2004, published 2006).

Tested on: Anti-myoglobin IgG
Settings: stated as known; IgG used as reference

binding to IgG: not to IgG
SMILES: CCC(Cc1c(I)cc(I)c(O)c1I)C(=O)O (stereo not drawn) [iophenoxic acid, α-ethyl-3-hydroxy-2,4,6-triiodohydro-cinnamic acid]
